Test results: publication PMC9769502 (Microbiology Spectrum, 2022)
Read-outs that look alike come from different tables or passages of the source. No end group written: not given here.

How the values were obtained:
[1] = tested on: Leishmania donovani axenic amastigotes; conditions: 50 μM miltefosine control; cited from earlier work
Experimental: (§1) Axenic amastigotes were differentiated as described previously ([69]); briefly, transgenic L. donovani promastigotes expressing mCherry were differentiated by pH and temperature shifts. Amastigotes were seeded into 96-well plates at 5 × 10^6 cells/mL and incubated for 48 h in the presence of decreasing drug concentrations, starting at 20 μM, along with the appropriate solvent controls. Fluorescence was monitored (587-nm excitation/610-nm emission) over 48 h using a FlexStation 3 benchtop multimode reader (Molecular Devices). At 50 μM miltefosine, 99% parasite inhibition is observed. Thus, chan ...

[2] = tested on: Leishmania donovani intracellular amastigotes; conditions: 50 μM miltefosine control; cited from earlier work
Experimental: Transgenic L. donovani promastigotes constitutively expressing mCherry and THP-1 macrophages were cultured as described above. Metacyclic promastigotes were isolated using a Ficoll-400 density gradient as previously described ([70]). Differentiated macrophages were exposed to parasites for 4 h at a multiplicity of infection (MOI) of 10 parasites:1 macrophage. After 4 h, the macrophages were washed thoroughly with 1× phosphate-buffered saline (PBS) (pH 7.4) and incubated overnight at 37°C with 5% CO2. Macrophages were transferred to 96-well plates at 5 × 10^6 cells/mL and exposed to antimicrobi ...

[3] = tested on: Leishmania donovani axenic amastigotes
Experimental: We utilized a previously developed high-throughput screening assay using transgenic axenic amastigotes expressing a red fluorescent protein, mCherry. Changes in mCherry fluorescence were normalized to 50 μM miltefosine in order to quantify parasite inhibition ([52]). In total, 5 scaffold 25-mer peptides and 475 synthetic 25-mer peptide variants were screened (Fig. 1). […] The assay was repeated, and the average percent parasite killing was determined.
Axenic amastigotes were differentiated as described previously ([69]).
as §1, with “[…] Thus, changes in mCherry fluorescence were normalized to the” for “At”, “miltefosine control in order to quantify” for “miltefosine, 99%”, “inhibition. Each assay was performed in triplicate. The IC50 values were calculated by nonlinear regression analysis using GraphPad Prism 9.0 for Windows.” for “inhibition is observed. Thus, chan ...”

THP-1 macrophages = assay: Cytotoxicity against THP-1 macrophages (CellTiter-Blue); assay type: cell-based, human
Experimental: THP-1 (human acute monocytic leukemia-derived) host macrophages were cultured in RPMI 1640 supplemented with 10% FCS and a penicillin-streptomycin antibiotic solution (10,000 U/mL penicillin, 10,000 μg/mL streptomycin) at 37°C with 5% CO2. THP-1 cells were incubated with 0.25 μM phorbol 12-myristate […] (PMA) for 48 h to differentiate into mature macrophages. Differentiated macrophages were seeded into 96-well plates at 5 × 10^6 cells/mL and incubated for 48 h in the presence of 20 μM antimicrobial peptides along with the appropriate solvent controls. Cell viability assays were conducted using CellTiter-Blue (Promega), based on resazurin reduction. After the 48-h incubation period, CellTiter-Blue reagent was added to cells for 4 h at 37°C, and fluorescence was measured (555-nm excitation/580-nm emission) using a FlexStation 3 benchtop multimode reader (Molecular Devices). Each assay was performed in triplicate. The CC50 values were calculated by nonlinear regression analysis using GraphPad Prism 9.0 for Windows.

[4] = tested on: Leishmania pifanoi axenic amastigotes; conditions: full-length enterocin AS-48; read-out: IC50 against Leishmania pifanoi axenic amastigotes; cited from earlier work
From the text: Enterocin AS-48, a class I bacteriocin, has been well characterized and is currently being investigated for use as an antimicrobial drug against a large variety of infectious disease agents ([45]). Enterocin AS-48 is a ribosomally produced, circularized bacteriocin encoded by Enterococcus faecalis subsp. liquefaciens strain S-48, which undergoes head-to-tail macrocyclization as a posttranslational modification ([46]). Efforts to engineer synthetic enterocin AS-48 have been made in order to improve mass production and bioactivity. Previously, segments of the bacteriocin have undergone α-ketoaci ...

axenic amastigotes = conditions: previous data used to set the 20 μM screening concentration; read-out: IC50 of enterocin AS-48 (previous data); cited from earlier work
Experimental: We utilized a previously developed high-throughput screening assay using transgenic axenic amastigotes expressing a red fluorescent protein, mCherry. Changes in mCherry fluorescence were normalized to 50 μM miltefosine in order to quantify parasite inhibition ([52]). In total, 5 scaffold 25-mer peptides and 475 synthetic 25-mer peptide variants were screened (Fig. 1). […] The assa ... || In this work, we determined the efficacy and cytotoxicity of 480 synthetic, minimal AS-48 bacteriocin homolog peptide variants against L. donovani using phenotypic in vitro fluorometric assays. […] This study illustrates the successful use of rational design using the minimal domain of naturally occurring bacteriocin scaffolds to increase leishmanicidal activity.

[5] = tested on: intracellular amastigotes; conditions: previously shown; cited from earlier work
From the text: As Leishmania spp. are obligate intracellular parasites, intracellular amastigote IC50 value determination is necessary to understand the clinical relevance of the 10 antileishmanial peptide drug candidates.

[6] = read-out: Axenic amastigotes Mean IC50 ± SD, L. donovani mCherry axenic amastigotes, 48 h, fluorescence normalized to 50 μM miltefosine, highest concentration 20 μM, mean of three replicates
[7] = read-out: Axenic amastigotes Mean IC50 ± SD

Compound | IC50 [3, 6] [µM] | THP-1 macrophage CC50 (THP-1 macrophages) | also measured
CCCCCCCCCCCCCCCCOP(=O)([O-])OCC[N+](C)(C)C [miltefosine] | – | – | Parasite inhibition (axenic amastigotes) [1]: 99%; Intracellular parasite inhibition [2]: 99%
AGKEKIRQFLKKKIQEGKKRATIAW [Syn-larvacin-76] | 1.58 | < 20 µM | –
AGRQALTLYLKEELRKFWKKARIAW [Syn-xiamencin-21] | 0.59 | < 20 µM | –
AGKEKIRKKWKNEIKKKGRKAVIAW [Syn-safencin-40] | 2.12 | < 20 µM | –
AGRQALWLYLKEELRKRGKIAFKAW [Syn-xiamencin-46] | – | < 20 µM | IC50 [3, 7]: 11.8 µM
AGKEKIRQFLKKKIQEKGKRATIAW [Syn-larvacin-73] | 0.39 | < 20 µM | –
AGKETIRQYLKNEIKKKGRKAVWAW [Syn-safencin 73] | – | > 20 µM | IC50 ([3]; 48 h): 0.35 ± 0.08 µM; THP-1 macrophage CC50 (THP-1 macrophages; 48 h): >20 µM
AGRQALTLYLKEELRKRGKKWFIAW [Syn-xiamencin-33] | 2.66 | < 20 µM | –
AGTEKIFNRLKKWINEGKKIAKRAW [Syn-larvacin-32] | 0.23 | < 20 µM | –
AGRQALWKYLLEELRKRGKKAFIAW [Syn-xiamencin-44] | – | < 20 µM | IC50 [3, 7]: 1.18 µM
AGKETIRQFLKKKIQEKKKRATIAW [Syn-larvacin-81] | 0.26 | < 20 µM | –
AGKEKIRKKLKNEWKKKGRKAVIAW [Syn-safencin-48] | 1.75 | < 20 µM | –
AGWQRLTLYLKEELRKRGKKAFIAW [Syn-xiamencin-50] | – | < 20 µM | IC50 [3, 7]: 3.74 µM
AGKKTIRQYLKNEIKKKGRKAVWAW [Syn-safencin-74] | 3.51 | < 20 µM | –
WGKETIRQYLKNKIKKKGRKAVIAW [Syn-safencin-11] | 12.2 | below 20 μM | –
AGKKTIRQYLKNEIKKKGRKAVIAW [Syn-safencin 2] | – | > 20 µM | IC50 ([3]; 48 h): 2.42 ± 0.09 µM; THP-1 macrophage CC50 (THP-1 macrophages; 48 h): >20 µM

Compound | IC50 [3, 6] [µM] | THP-1 macrophage CC50 (THP-1 macrophages) | also measured
AGKETIRQFLKKKIQEKGKIATRWW [Syn-larvacin-70] | 0.3 | < 20 µM | –
AGKEKIRQYLKNEIKKKGRKAWIAW [Syn-safencin-69] | 3.37 | < 20 µM | –
AGRQWLTLYLKEELRKFGKKARIAW [Syn-xiamencin-53] | 14.8 | < 20 µM | –
AGKETIFWRLKKKIWEKGKRATIAW [Syn-larvacin-51] | 0.42 | < 20 µM | –
WGKETIRQFLKKKIQEKGKIATRAW [Syn-larvacin 14] | – | > 20 µM | IC50 ([3]; 48 h): 3.89 ± 0.1 µM; THP-1 macrophage CC50 (THP-1 macrophages; 48 h): >20 µM
AGANRLWKELLEYLRKFGKIARKAW [Syn-xiamencin-48] | – | < 20 µM | IC50 [3, 7]: 2.18 µM
enterocin AS-48 | – | – | IC50 [4]: 10.2 ± 1.2 µM; IC50 (axenic amastigotes): ~20 µM; Activity against intracellular amastigotes [5]: limited activity
AGKETIRKYLKNEIKKKGRKAVIAW [Syn-safencin 6] | – | > 20 µM | IC50 ([3]; 48 h): 0.48 ± 0.07 µM; THP-1 macrophage CC50 (THP-1 macrophages; 48 h): >20 µM
WGKKTIRQYLKNEIKKKGRKAVIAW [Syn-safencin-10] | 2.97 | below 20 μM | –
AGKETIRQYWKNKIKKKGRKAVIAW [Syn-safencin-35] | 0.29 | < 20 µM | –
AGSERIAKELKKYIKKWKKVIRAAW [Syn-enterocin-48] | 1.21 | < 20 µM | –
AGSERIAKELKKYIKKGKKWIRAAW [Syn-enterocin-64] | 0.42 | < 20 µM | –
AGKKTIRQYLKNEIKKKGRKAWIAW [Syn-safencin 66] | – | > 20 µM | IC50 ([3]; 48 h): 3.64 ± 0.1 µM; THP-1 macrophage CC50 (THP-1 macrophages; 48 h): >20 µM
AWKETIRQYLKNKIKKKGRKAVIAW [Syn-safencin-19] | 0.38 | < 20 µM | –
AGAQRLWKELLEYLRKFGKIARKAW [Syn-xiamencin-47] | – | < 20 µM | IC50 [3, 7]: 2.68 µM
